Data: patent US9113629B2, “4-amino-6-(4-substituted-phenyl)-picolinates and 6-amino-2-(4-substituted-phenyl)-pyrimidine-4-carboxylates and their use as herbicides” (DOW AGROSCIENCES LLC, priority 2013, dated 2015)
Like-named read-outs stand apart in the source and are kept apart here.

What was measured:
[1] = system: Key Grass and Sedge Weeds as well as Grass Crops; assay: Post-emergent Test II herbicidal activity (Table 6); assay type: in vivo; details: post-emergence, 336 h, application rate 140 g ai/ha
Description: (§1) Post-emergent Test II: Seeds or nutlets of the desired test plant species were planted in Sun Gro Metro-Mix® 360 planting mixture, which typically has a pH of 6.0 to 6.8 and an organic matter content of about 30 percent, in plastic pots with a surface area of 64 square centimeters. When required to ensure good germination and healthy plants, a fungicide treatment and/or other chemical or physical treatment was applied. The plants were grown for 7-21 d in a greenhouse with an approximate 15 h photoperiod which was maintained at about 23-29° C. during the day and 22-28° C. during the night. Nutrients and water were added on a regular basis and supplemental lighting was provided with overhead metal halide 1000-Watt lamps as necessary. The plants were employed for testing when they reached the first or second true leaf stage.
(§2) A weighed amount, determined by the highest rate to be tested, of each test compound was placed in a 25 mL glass vial and was dissolved in 4 mL of a 97:3 v/v mixture of acetone and DMSO to obtain concentrated stock solutions. […] The concentrated stock solutions obtained were diluted with 20 mL of an aqueous mixture containing acetone, water, isopropyl alcohol, DMSO. Atplus 411F crop oil concentrate, and Triton® X-155 surfactant in a 48.5:39:10:1.5:1.0:0.02 v/v ratio to obtain spray solutions containing the highest application rates. Additional application rates were obtained by serial dilution of 12 mL of the high rate solution into a solution containing 2 mL of 97:3 v/v mixture of acetone and DMSO and 10 mL of an aqueous mixture containing acetone, water, isopropyl alcohol, DMSO, Atplus 411F crop oil concentrate, and Triton X-155 surfactant in a 48.5:39:10:1.5:1.0:0.02 v/v ratio to obtain ½×, ¼×, ⅛× and 1/16× rates of the high rate. Compound requirements are based upon a 12 mL application volume at a rate of 187 liters per hectare (L/ha). Formulated compounds were applied to the plant material with an overhead Mandel track sprayer equipped with 8002E nozzles calibrated to deliver 187 L/ha over an application area of 0.503 square meters at a spray height of 18 inches (43 cm) above the average plant canopy height. Control plants were sprayed in the same manner with the solvent blank.
(§3) The treated plants and control plants were placed in a greenhouse as described above and watered by subirrigation to prevent wash-off of the test compounds. After 14 d, the condition of the test plants as compared with that of the untreated plants was determined visually and scored on a scale of 0 to 100 percent where 0 corresponds to no injury and 100 corresponds to complete kill.

[2] = system: Key Broadleaf Weed and Crop Species; assay: Post-emergent Test II herbicidal activity (Table 5); assay type: in vivo; details: post-emergence, 336 h, 140 g ai/ha, post-emergent, 14 days after application
Description: as §1, §2, §3

[3] = Triticum aestivum, TRZSS (wheat), read-out: Visual Growth Reduction (%) 14 Days After Application, TRZSS
[4] = CYPES: yellow nutsedge (Cyperus esculentus), read-out: Visual Growth Reduction (%) 14 Days After Application, CYPES
[5] = DIGSA: crabgrass (Digitaria sanguinalis), read-out: Visual Growth Reduction (%) 14 Days After Application, DIGSA
[6] = ECHCG: barnyardgrass (Echinochloa crus-galli), read-out: Visual Growth Reduction (%) 14 Days After Application, ECHCG
[7] = ORYSA: rice (Oryza sativa), read-out: Visual Growth Reduction (%) 14 Days After Application, ORYSA
[8] = SETFA: giant foxtail (Setaria faberi), read-out: Visual Growth Reduction (%) 14 Days After Application, SETFA
[9] = SORVU: grain sorghum (Sorghum vulgare), read-out: Visual Growth Reduction (%) 14 Days After Application, SORVU
[10] = ZEAMX: maize, corn (Zea mays), read-out: Visual Growth Reduction (%) 14 Days After Application, ZEAMX
[11] = ABUTH: velvetleaf (Abutilon theophrasti), read-out: Visual Growth Reduction (%) 14 Days After Application ABUTH
[12] = AMARE: redroot pigweed (Amaranthus retroflexus), read-out: Visual Growth Reduction (%) 14 Days After Application AMARE
[13] = BRSNN: oilseed-rape, canola (Brassica napus), read-out: Visual Growth Reduction (%) 14 Days After Application BRSNN
[14] = CHEAL: lambsquarters (Chenopodium album), read-out: Visual Growth Reduction (%) 14 Days After Application CHEAL
[15] = EPHHL: wild poinsettia (Euphorbia heterophylla), read-out: Visual Growth Reduction (%) 14 Days After Application EPHHL
[16] = HELAN: sunflower (Helianthus annuus), read-out: Visual Growth Reduction (%) 14 Days After Application HELAN
[17] = VIOTR: wild pansy (Viola tricolor), read-out: Visual Growth Reduction (%) 14 Days After Application VIOTR

Row | Structure (SMILES) | melting point [°C] | pest or weed control at 140 g/ha [1, 3] [%] | pest or weed control at 140 g/ha [1, 4] [%] | pest or weed control at 140 g/ha [1, 5] [%] | pest or weed control at 140 g/ha [1, 6] [%] | pest or weed control at 140 g/ha [1, 7] [%] | pest or weed control at 140 g/ha [1, 8] [%] | pest or weed control at 140 g/ha [1, 9] [%] | pest or weed control at 140 g/ha [1, 10] [%] | pest or weed control at 140 g/ha [2, 11] [%] | pest or weed control at 140 g/ha [2, 12] [%] | pest or weed control at 140 g/ha [2, 13] [%] | pest or weed control at 140 g/ha [2, 14] [%] | pest or weed control at 140 g/ha [2, 15] [%] | pest or weed control at 140 g/ha [2, 16] [%] | pest or weed control at 140 g/ha [2, 17] [%]
1 | COC(=O)c1nc(-c2ccc(C#N)cc2)c(Cl)c(N)c1Cl [Compound 1] | 133.4 to 134.8 | 0 to 29 | 30 to 44 | 0 to 29 | 0 to 29 | 0 to 29 | 0 to 29 | 0 to 29 | 0 to 29 | 60 to 74 | 60 to 74 | 0 to 29 | 85 to 94 | 0 to 29 | 95 to 100 | 0 to 29
2 | C#Cc1ccc(-c2nc(C(=O)O)c(Cl)c(N)c2C)cc1F [Compound 6, 4-Amino-3-chloro-6-(4-ethynyl-3-fluorophenyl)-5-methylpicolinic acid] | 175 to 176.5 |  |  |  |  |  |  |  |  |  |  |  |  |  |  | 
3 | Nc1cc(-c2ccc(OC(F)F)cc2)nc(C(=O)O)c1Cl [Compound 10] | 170.4 to 172.1 | 60 to 74 | 0 to 29 | 75 to 84 | 85 to 94 | 0 to 29 | 95 to 100 | 75 to 84 | 60 to 74 | 95 to 100 | 95 to 100 | 60 to 74 | 75 to 84 | 95 to 100 | 85 to 94 | 0 to 29
4 | N#Cc1ccc(-c2nc(C(=O)O)c(Cl)c(N)c2Cl)cc1 [Compound 14] | 178 to 179.7 | 0 to 29 | 0 to 29 | 0 to 29 | 0 to 29 | 0 to 29 | 0 to 29 | 0 to 29 | 0 to 29 | 0 to 29 | 0 to 29 | 0 to 29 | 95 to 100 | 0 to 29 | 95 to 100 | 0 to 29
5 | COC(=O)c1nc(-c2ccc(OC(F)F)cc2)c(Cl)c(N)c1Cl [Compound 15] | 102.4 to 103.6 | 0 to 29 | 0 to 29 | 0 to 29 | 0 to 29 | 0 to 29 | 0 to 29 | 0 to 29 | 0 to 29 | 85 to 94 | 0 to 29 | 0 to 29 | 30 to 44 | 0 to 29 | 95 to 100 | 0 to 29
6 | COc1c(N)nc(-c2ccc(C#N)cc2)nc1C(=O)O [Compound 25] | 185.2 to 186.1 | 0 to 29 | 0 to 29 | 0 to 29 | 0 to 29 | 0 to 29 | 0 to 29 | 0 to 29 | 0 to 29 | 0 to 29 | 0 to 29 | 0 to 29 | 0 to 29 | 0 to 29 | 0 to 29 | 0 to 29
7 | COC(=O)c1nc(-c2ccc(OC(F)(F)F)cc2)nc(N)c1OC [Compound 30] | 122 to 123.6 | 0 to 29 | 0 to 29 | 0 to 29 | 0 to 29 | 0 to 29 | 0 to 29 | 0 to 29 | 0 to 29 | 45 to 59 | 0 to 29 | 0 to 29 | 0 to 29 | 95 to 100 | 0 to 29 | 0 to 29
8 | C=Cc1c(C(=O)OC)nc(-c2ccc(I)cc2)c(F)c1N [Compound 139, methyl 4-amino-5-fluoro-6-(4-iodophenyl)-3-vinylpicolinate] | 95 to 96 |  |  |  |  |  |  |  |  |  |  |  |  |  |  | 
9 | C=Cc1c(N)nc(-c2ccc(I)cc2)nc1C(=O)OC [Compound 164, methyl 6-amino-2-(4-iodophenyl)-5-vinylpyrimidine-4-carboxylate] | 142 to 144 |  |  |  |  |  |  |  |  |  |  |  |  |  |  | 
10 | COc1c(N)nc(-c2ccccc2)nc1C(=O)O [Compound 207] | 130 to 132 |  |  |  |  |  |  |  |  |  |  |  |  |  |  | 
